According to US11241434B2, “Compositions and methods for improving cognition in a subject” (Yale University, priority 2013, dated 2022):

Tests used:
[1] = system: Fyn (phospho-Src pY416); experiment: pY416 and Fyn immunoblot of hippocampus of WT mice fed AZD0530 diet; format: in vivo, mouse; details: diet pellets 5 mg/kg/d, 9 months, vs Vehicle
Description: FIGS. 17A-17C illustrate reduced Fyn activation in mice fed AZD0530-containing food. FIG. 17A: Representative blots using anti-pY416, Fyn, and 8-actin antibodies of the RIPA-soluble fraction of the hippocampus of WT mice treated with Vehicle or AZD0530 for 9 months. FIG. 17B: Quantification of pY416-immunoreactive bands from the immunoblot from FIG. 17A by densitometric analysis. The bands indicated by an arrow in FIG. 17A were quantified. The band intensity was normalized to that of 8-actin and then normalized to the mean of the Vehicle-treated WT group. Data are represented as mean±SEM. n=6/group. *p<0.05; t-test. FIG. 17C: Quantification of Fyn-immunoreactive bands from the immunoblot in FIG. 17A by densitometric analysis. The band intensity was normalized to that of β-actin and then normalized to the mean of the Vehicle-treated WT group. Data are represented as mean±SEM. n=6/group. t-test.
To generate chow containing chow for chronic dosing, the compound was incorporated into purified diet pellets by Research Diets, Inc. by dissolving the compound in a solution of 0.5% w/v Hydroxypropylmethylcellulose/0.1% w/v polysorbate 80 at 1.429 mg/ml. […] The dosage of the drug in the food was calculated to take into account the average amount of food eaten by a mouse in a single day per kg of weight and adjusted to be equivalent to ingesting 5 mg/kg per day. […]

[2] = system: PS19 mice; experiment: Passive avoidance test in PS19 mice; format: in vivo, mouse; details: 8-month-old PS19 mice, 6 months of treatment
Description: FIGS. 11A-11C illustrate that Fyn kinase inhibition prevents memory deficits in P301S Tau transgenic tice. FIG. 11A: Timeline of PS19 mouse treatment. FIG. 11B: Morris water maze probe trial for 8-month-old PS19 or WT mice after 6 months of AZD0530 or Vehicle treatment. Twenty four hours after the reverse learning trials in the Morris water maze, the submerged platform was removed and the fraction of 60 sec spent in the target quadrant where the hidden platform had been located previously was recorded. n=11-15/group, each dot is one mouse. Data are mean±SEM. Dashed line indicates random chance performance. Two-way ANOVA reveal an interaction between genotype and treatment (p=0.014). *p<0.05; Sidak's post-hoc multiple comparisons test. FIG. 11C: Passive avoidance test for 8-month-old PS19 and WT mice after 6 months of treatment with AZD0530 or Vehicle. Latency was measured as the time for the mouse to cross to the opaque box. n=16-18/group. Wilcoxon match-pairs signed test; (WT, Vehicle: p=0.0007; WT, AZD0530: p<0.0001; […]; PS19, AZD0530: p=0.0126.)
A Passive Avoidance Controller CAT 7551 was used to conduct the passive avoidance test as previously described (Gimbel et al., 2010, J Neurosci 30:6367-6374) with slight modifications. The door delay was set to 90 seconds, and the shock intensity was set to 0.5 mA with a shock duration of 2 seconds. […]

Compound: CN1CCN(CCOc2cc(OC3CCOCC3)c3c(Nc4c(Cl)ccc5c4OCO5)ncnc3c2)CC1 [saracatinib, N-(5-chloro-benzo[d][1,3]dioxol-4-yl)-7-(2-(4-methylpiperazin-1-yl)ethoxy)-5-(tetrahydro-2H-pyran-4-yloxy)quinazolin-4-amine]
- total Fyn levels in hippocampus [1]: no difference
- passive avoidance at 24 hours [2]: exhibited passive avoidance
